The values that follow come from patent US8552041B2, “Therapeutic approaches for treating alzheimer disease and related disorders through a modulation of cell stress response” (Pharnext, priority 2008, dated 2013).

Data set [1] concerns Human Brain Microvascular Endothelial Cells (HBMEC). Put plainly: Capillary network length in human Aβ1-42 intoxicated HBMEC on matrigel. The following applies: for Effect on intoxication, total length of capillary network in beta-amyloid intoxicated HBMEC cultures: Aβ1-42 2.5 μM, combination versus each drug alone at the same concentrations, FIGS. 5 and 6. It counts as cell-based. On the procedure: Human brain microvascular endothelial cerebral cells (HBMEC, ScienCell Ref: 1000, frozen at passage 10) were rapidly thawed in a waterbath at +37° C. The supernatant was immediately put in 9 ml Dulbecco's modified Eagle's medium (DMEM; Pan Biotech ref: P04-03600) containing 10% of foetal calf serum (FCS; GIBCO ref 10270-106). Cell suspension was centrifuged at 180×g for 10 min at +4° C. and the pellets were suspended in CSC serum-free medium (CSC serum free, Cell System, Ref: SF-4Z0-500-R, Batch 51407-4) with 1.6% of Serum free RocketFuel (Cell System, Ref: SF-4Z0-500-R, Batch 54102), 2% of Penicillin 10.000 U/ml and Streptomycin 10 mg/ml (PS; Pan Biotech ref: P06-07100 batch 133080808) and were seeded at the density of 20 000 cells per well in 96 well-plates (matrigel layer biocoat angiogenesis system, BD, Ref 354150, Batch A8662) in a final volume of 100 μl. On matrigel support, endothelial cerebral cells spontaneously started the process of capillary network morphogenesis (54).
Three separate cultures were performed per condition, 6 wells per condition.
Briefly, Aβ1-42 peptide (Bachem, ref: H1368 batch 1010533) was reconstituted in define culture medium at 20 μM (mother solution) and was slowly shacked at +37° C. for 3 days in. The control medium was prepared in the same conditions.
After 3 days, this human amyloid peptide was used on HBMEC at 2.5 μM diluted in control medium (optimal incubation time). The Aβ1-42 peptide was added 2 hours after HBMEC seeding on matrigel for 18 hours incubation.
One hour after HBMEC seeding on matrigel, test compounds and VEGF-165 were solved in culture medium (+0.1% DMSO) and then pre-incubated with HBMEC for 1 hour before the Aβ1-42 application (in a final volume per culture well of 100 μl).
VEGF-165, known to be a pro-angiogenic isoform of VEGF-A, was used for all experiments in this study as reference compound.
The following conditions were assessed: • Negative Control: medium alone+0.1% DMSO • Intoxication: amyloid-β1-42 (2.5 μM) for 18 h • Positive control: VEGF-165 (10 nM) (1 reference compound/culture) 1 hr before the Aβ1-42 (2.5 μM) addition for a 18 h incubation time. • Test compounds: Test compound I hr before the Aβ1-42 (2.5 μM) addition for a 18 h incubation time. Capillary Network Quantification
Per well, 2 pictures with 4× lens were taken using InCell Analyzer™ 1000 (GE Healthcare) in light transmission. All images were taken in the same conditions. Analysis of the angiogenesis networks was done using Developer software (GE Healthcare). The total length of capillary network was assessed.
All values are expressed as mean±s.e.mean of the 3 cultures (n=6 per condition). […] Indeed, the amyloid toxicity was taken as the 100% and the test compound effect was calculated as a % of this amyloid toxicity. […]

Data set [2] deals with rat primary cortical neuron culture. Nature of the data set: LDH release in Aβ25-35 intoxicated rat primary cortical neuron culture. Conditions: Aβ25-35 20 μM, 2 days; drug pre-incubated 1 h; FIG. 2. Format: cell-based. How it is done: Primary rat cortical neurons are cultured as described by Singer et al., 1999. Briefly pregnant female rats of 15 days gestation are killed by cervical dislocation (Rats Wistar; Janvier) and the foetuses removed from the uterus. The cortex are removed and placed in ice-cold medium of Leibovitz (L15; Invitrogen) containing 1% of Penicillin-Streptomycin (PS; Invitrogen) and 1% of bovine serum albumin (BSA; Sigma). Cortex are dissociated by trypsinisation for 20 min at 37° C. (Trypsin EDTA 1×; Invitrogen) diluted in PBS without calcium and magnesium. The reaction is stopped by the addition of Dulbecco's modified Eagle's medium (DMEM; Invitrogen) containing DNAase I grade II (0.1 mg/ml; Roche Diagnostic) and 10% of foetal calf serum (FCS; Invitrogen). Cells are then mechanically dissociated by 3 passages through a 10 ml pipette. Cells are then centrifuged at 180×g for 10 min at 10° C. The supernatant is discarded and the cells of pellet are re-suspended in a defined culture medium consisting of Neurobasal (Invitrogen) supplemented with B27 (2%; Invitrogen), L-glutamine (0.2 mM; Invitrogen), 1% of PS solution and 10 ng/ml of Brain-derived neurotrophic factor (BDNF, Pan Biotech). Viable cells are counted in a Neubauer cytometer using the trypan blue exclusion test. Cells are seeded at a density of 30 000 cells/well in 96 well-plates (wells are pre-coated with poly-L-lysine (10 ng/ml; Sigma)) and are cultured at 37° C. in a humidified air (95%)/CO2 (5%) atmosphere.
After 6 days of culture, cells are incubated with drugs (5 concentrations). After 1 hour, cells are intoxicated by 20 μM of β-amyloid (25-35; Sigma) in defined medium without BDNF but together with drugs. Cortical neurons are intoxicated for 2 days. BDNF (10 ng/ml) is used as a positive (neuroprotective) control.
After 2 days of culture, the supernatant is collected and analyzed with Cytotoxicity Detection Kit (LDH, Roche Applied Sciences). This colorimetric assay for the quantification of cell death is based on the measurement of lactate dehydrogenase (LDH) activity released from the cytosol of damaged cells into the supernatant. The optic density (DO) is assessed by spectrophotometer at 492 nm wavelength by a multiscan apparatus (Thermo, Ref Ascent). Results are expressed in percentage of cell viability, compared to the negative control (vehicle).
Results presented in FIGS. 1 and 2 are extracted from two independent cultures, 6 wells per condition. All values are expressed as mean±s.e.mean. A bilateral Student's t test analysis is performed on raw data. […]
Rat primary cortical neurons are incubated with drugs one hour before Aβ25-35 20 μM intoxication that lasts 2 days. Two days after this incubation, LDH release in the culture medium is quantified, reflecting the level of cell death.
On the technique in general: LDH leaks from cells whose membrane has failed.

For another data set, the system named is NGF-differentiated PC12. Put plainly: MTT viability of NGF-differentiated PC12 cells after Abeta25-35 intoxication. It counts as cell-based, Rat. Conditions: Abeta25-35 10 μM, 24 h; drug pre-incubated 1 h; FIG. 1. How it is done: PC12 (Pheochromocytoma Rat, ATCC ref: CRL-1721) cells from [NT] CRL-1721) were rapidly thawed in 37° C. water. The supernatant was immediately put in 9 ml of a “PC12 proliferation medium” containing Dulbecco's modified Eagle's medium DMEM-F12 (Pan Biotech ref: P04-41450) with 15% heat-inactivated horse serum (Invitrogen ref: 16050-130), 2.5% of fetal bovine serum (FBS; Invitrogen ref: 16000-036), 1% of Penicillin 10.000 U/ml and Streptomycin 10 mg/ml (PS; Pan Biotech ref: P06-07100) and 1% de L-glutamine 200 mM (Pan Biotech ref: P04-80100). Cells were centrifuged (800 rounds/min, 4° C. for 5 min) and added in 5 ml “PC12 proliferation medium”, viable cells were counted with a Malassez cell using the neutral red exclusion test (Sigma). Then the cells were seeded at 3·10^4 cells per cm^2 in “PC12 proliferation medium” in 75 cm^2 plastic flasks (Greiner Ref: 658175) precoated with poly-L-lysine (10 μg/ml, Sigma Ref: P2636). Medium was changed every other day. After 3 days of culture, when cells reached 80% of confluence, they were washed in HBSS without calcium and magnesium (Pan Biotech Ref: P06-33500) and incubated in trypsin EDTA, (0.05%, Pan Biotech Ref: P10-023100). The enzymatic reaction was stopped with PC12 proliferation medium added by 0.5 mg/ml of DNAse 1 grade 2 (Pan Biotech Ref: T60-37780100). […]

The subject of data set [3] is rat primary cortical neuron cells. Put plainly: LDH release in human Aβ1-42 intoxicated rat primary cortical neuron culture. It counts as cell-based. Conditions: human Aβ1-42 10 μM, 24 h; 1 hr pre-treatment; FIG. 4. How it is done:
Primary rat cortical neurons are cultured as described previously.
The control medium was prepared in the same conditions.
Cortical neurons were intoxicated for 24 hours. Three separate cultures were performed per condition, 6 wells per condition.
This colorimetric assay for the quantification of cell toxicity is based on the measurement of lactate dehydrogenase (LDH) activity released from the cytosol of dying cells into the supernatant.
All values are expressed as mean±s.e.mean of the 3 cultures (n=6 per condition).

As for `Cc1noc(NS(=O)(=O)c2ccc(N)cc2)c1C` [Sulfisoxazole], the “Effect on intoxication, total length of capillary network in beta-amyloid intoxicated HBMEC cultures” value in data set [1] was “no significant effect”. For the same molecule, the “Prevention of human Aβ1-42 injury in HBMEC (capillary network), single drug” value in data set [1] (human Aβ1-42 2.5 μM, 18 h, 1 hr pre-treatment, FIG. 3B) is on record as “significantly prevented”. In data set [2], the “Prevention of Aβ25-35 intoxication, LDH release in rat primary cortical neurons” value (“Prevention of Aβ25-35 intoxication” for short) is reported as “significantly prevented”. Turning to `CCCNC(C)C(=O)Nc1ccccc1C` (centres unmarked) [Prilocaln, Prilocaine], the “Prevention of Abeta25-35 intoxication, viability of NGF-differentiated PC12 (MTT)” value in the data set on NGF-differentiated PC12 was “significantly prevented”. As to `NS(=O)(=O)Cc1noc2ccccc12` [Zonisamide], the “Prevention of Aβ25-35 intoxication” value in data set [2] is given as “significantly prevented”.

With `Cc1oncc1C(=O)Nc1ccc(C(F)(F)F)cc1` [Leflunomide], in data set [2], the “Prevention of Aβ25-35 intoxication” value was “significantly prevented”.

On to `CN(C/C=C/C#CC(C)(C)C)Cc1cccc2ccccc12` [Terbinafine], for which the “Effect on intoxication, total length of capillary network in beta-amyloid intoxicated HBMEC cultures” value in data set [1] is given as “no significant effect”. On the same count and under the same terms, under `C[C@@H]1CC(=O)NN=C1c1ccc(NN=C(C#N)C#N)cc1` [Levosimendan] stands “no significant effect”. For the molecule `CN1CC(=O)N2[C@H](c3ccc4c(c3)OCO4)c3[nH]c4ccccc4c3C[C@@H]2C1=O` [Tadalafil], the “LDH release compared to amyloid intoxication” value in data set [3] is recorded as −57%.

B1: BDNF: Brain-derived neurotrophic factor, positive (neuroprotective) control (protein, UniProt P23560 19-247, looked up)
Neurotrophic factor BDNF …: APMKEANIRGQGGLAYPGVRTHGTLESVNGPKAGSRGLTSLADTFEHVIEELLDEDQKVRPNEENNKDADLYTSRVMLSSQVPLEPPLLFLLEEYKNYLDAANMSMRVRRHSDPARRGELSVCDSISEWVTAADKKTAVDMSGGTVTVLEKVPVSKGQLKQYFYETKCNPMGYTKEGCRGIDKRHWNSQCRTTQSYVRALTMDSKKRIGWRFIRIDTSCVCTLTIKRGR
As to B1, in data set [3], the “LDH release compared to amyloid intoxication” value is reported as −95%. In data set [2], the “Prevention of Aβ25-35 intoxication” value was “efficiently prevented”.
